Results reported in patent US20250154198A1, “PEPTIDE INHIBITORS OF INTERLEUKIN-23 RECEPTOR” (Zealand Pharma A/S, priority 2021, published 2025).
*1 amine or outer side, *2 acyl side, *3 side chain or, on linkers, in order; H or OH if unused. Where a SMILES comes first, the peptide text is derived from it. Bridges are numbered along the chain shown (N, C = ends). [ ]: non-standard residue; d: D form. The star is where a group is joined. Me3N+(CH2)2O(CH2)2O(CH2)2CO = C[N+](C)(C)CCOCCOCCC(=O)*; NHCH2(1,3-C6H4)CH2CO = O=C(Cc1cccc(CN[*:1])c1)[*:2]; dTrp(6-F) = N[C@H](Cc1c[nH]c2cc(F)ccc12)C(=O)O; αMeAla(3-pyridyl) = C[C@](N)(Cc1cccnc1)C(=O)O; Trp(1-Me) = Cn1cc(C[C@H](N)C(=O)O)c2ccccc21; Phe(3,4-Me2) = Cc1ccc(C[C@H](N)C(=O)O)cc1C; Bip = N[C@@H](Cc1ccc(-c2ccccc2)cc1)C(=O)O; Phe(4-Me) = Cc1ccc(C[C@H](N)C(=O)O)cc1; dPhe(4-F) = N[C@H](Cc1ccc(F)cc1)C(=O)O; 2Nal = N[C@@H](Cc1ccc2ccccc2c1)C(=O)O; AEF = NCCOc1ccc(C[C@H](N)C(=O)O)cc1; NMeR = CN[C@@H](CCCNC(=N)N)C(=O)O; X1 = O=C(Cc1ccc(CN[*:1])cc1)[*:2]; αMeL = CC(C)C[C@](C)(N)C(=O)O; CH2COCH2 = O=C(C[*:1])C[*:2]; Phg = N[C@H](C(=O)O)c1ccccc1; αMeV = CC(C)[C@](C)(N)C(=O)O; 3Amb = NCc1cccc(C(=O)O)c1; dDab = NCC[C@@H](N)C(=O)O; Dab = NCC[C@H](N)C(=O)O

Experiments:
[1] = Peptide stability in simulated intestinal fluid (SIF); format: in vitro ADME; conditions: Table 3-2, porcine pancreatin, pH 6.8, 37° C., 10 μM; for remaining at 4 h, 10 μM: read-out: SIF (% remaining 4 h)
Experimental: Determination of Peptide Stability in Simulated Gastric Fluid (SGF) and Simulated Intestinal Fluid (SIF)
SGF was prepared by dissolving sodium chloride (0.2 g) in 50 mL of water. A volume of 0.7 mL of 10 M HCl was added to adjust the pH of the solution to 1.2 and the volume made up to 100 mL with water. […] SIF was prepared by dissolving monobasic potassium phosphate (0.68 g) in 50 mL of water and adjusting the pH to 6.8 with 1 M NaOH. The volume was subsequently made up to 100 mL with water. 200 mg porcine pancreatin (P1625, Sigma Aldrich) was gently dissolved into 20 mL preheated (37° C.) solution (10 g/L) immediately prior to the incubation.
The incubation was performed at 37° C. with gentle shaking. […] After the last timepoint, the sampling plate was mixed for 10 min on a shaking table and centrifuged 10 min at 2200 g. 70 μL resulting supernatant was diluted with 150 μL water, mixed and centrifugated before analysis by liquid chromatography high resolution mass spectrometry. […] Percent remaining at each timepoint was calculated relative to timepoint zero based on absolute peak areas.

human IL-23R = biological target: T1, human IL-23R (Homo sapiens, UniProt Q5VWK5); assay: Binding assay (NanoBRET displacement of fluorophore-labelled reference compound) for estimating binding affinity to human IL-23R; conditions: Table 3-1; read-out: Ki hIL-23R
T1 construct: UniProtKB—Q5VWK5, amino acids 22-629; secretion signal of the plasmid (Promega N1371); expressed in transfected cells
T1 sequence (Q5VWK5 22-629): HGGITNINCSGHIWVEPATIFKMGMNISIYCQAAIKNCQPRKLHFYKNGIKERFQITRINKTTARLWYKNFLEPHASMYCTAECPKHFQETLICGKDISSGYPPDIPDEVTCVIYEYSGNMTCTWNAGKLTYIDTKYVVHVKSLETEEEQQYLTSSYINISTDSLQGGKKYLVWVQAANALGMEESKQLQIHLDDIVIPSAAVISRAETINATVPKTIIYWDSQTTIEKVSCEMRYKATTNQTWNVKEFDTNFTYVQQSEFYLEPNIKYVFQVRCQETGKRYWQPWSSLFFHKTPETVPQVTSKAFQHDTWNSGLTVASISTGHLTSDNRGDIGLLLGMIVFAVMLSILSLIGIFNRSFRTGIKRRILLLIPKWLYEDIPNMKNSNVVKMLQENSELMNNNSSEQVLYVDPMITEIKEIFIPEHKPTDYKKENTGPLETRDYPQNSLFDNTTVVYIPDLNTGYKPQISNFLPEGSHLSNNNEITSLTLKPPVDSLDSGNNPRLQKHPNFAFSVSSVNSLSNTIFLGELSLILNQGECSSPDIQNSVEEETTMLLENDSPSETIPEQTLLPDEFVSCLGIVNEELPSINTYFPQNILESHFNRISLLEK

[2] = pig, simulated intestinal fluid (SIF) with porcine pancreatin, 4 h

Compound	remaining at 4 h, 10 μM [1, 2] [%]	further results
CC[C@H](C)[C@@H]1NC(=O)Cc2ccc(cc2)CNC(=O)CC[C@@H](C(=O)N[C@@H](CCN)C(=O)N[C@@](C)(Cc2cccnc2)C(N)=O)NC(=O)[C@](C)(C(C)C)NC(=O)[C@H](Cc2ccc(C)c(C)c2)NC(=O)[C@H](c2ccccc2)NC(=O)[C@@H]2CCNC(=O)CC[C@H](NC1=O)C(=O)N[C@@H](Cc1c[nH]c3ccccc13)C(=O)N[C@@H](CCC(N)=O)C(=O)N2 [Compound 174, [4-Aminomethyl-phenylacetyl](1c)*IE(2c)WQ[Dab](2c)[Phg][F(3,4-Me)][2-Me-Val]E(1c)[Dab][2-Me-3-(3-Pyridyl)-Ala]-[NH2]] ([X1]IEWQ[Dab][Phg][Phe(3,4-Me2)][αMeV]E[Dab][αMeAla(3-pyridyl)]-NH2; lactam 3-6, N-10)	86	
CC[C@H](C)[C@@H]1NC(=O)Cc2ccc(cc2)CNC(=O)CC[C@@H](C(=O)N[C@@H](CCN)C(=O)N[C@@](C)(Cc2cccnc2)C(N)=O)NC(=O)[C@](C)(C(C)C)NC(=O)[C@H](Cc2ccc(C)c(C)c2)NC(=O)[C@H](Cc2ccc(-c3ccccc3)cc2)NC(=O)[C@@H]2CCNC(=O)CC[C@H](NC1=O)C(=O)N[C@@H](Cc1c[nH]c3ccccc13)C(=O)N[C@@H](CCC(N)=O)C(=O)N2 [Compound 168, [4-Aminomethyl-phenylacetyl](1c)*IE(2c)WQ[Dab](2c)[Bip][F(3,4-Me)][2-Me-Val]E(1c)[Dab][2-Me-3-(3-Pyridyl)-Ala]-[NH2]] ([X1]IEWQ[Dab][Bip][Phe(3,4-Me2)][αMeV]E[Dab][αMeAla(3-pyridyl)]-NH2; lactam 3-6, N-10)	104	
CC(C)C[C@]1(C)NC(=O)[C@H](Cc2ccc3ccccc3c2)NC(=O)[C@H](Cc2ccc(OCCN)cc2)NC(=O)[C@@H]2CSCC(=O)CSC[C@H](NC(=O)[C@H](CO)NC(=O)Cc3cccc(c3)CNC(=O)CC[C@@H](C(=O)N[C@H](CCCNC(=N)N)C(N)=O)NC1=O)C(=O)N[C@@H](Cc1c[nH]c3ccccc13)C(=O)N[C@@H](CCC(N)=O)C(=O)N2 [Compound 92, [3-Aminomethyl-phenylacetyl](1c)*SC(2a)WQC(2a)[Y(2-aminoethoxy)][2-Nal][2-Me-Leu]E(1c)[{d}R]-[NH2]] ([NHCH2(1,3-C6H4)CH2CO]SCWQC[AEF][2Nal][αMeL]E[dR]-NH2; linker 3-6 via CH2COCH2; lactam N-10)	102	
CC(C)C[C@@H]1NC(=O)[C@H](Cc2c[nH]c3ccccc23)NC(=O)[C@H](Cc2c[nH]c3ccccc23)NC(=O)[C@@H]2CSCC(=O)CSC[C@H](NC(=O)[C@H](CO)NC(=O)[C@@H](NC(=O)[C@@H](N)CC(=O)O)CSCC(=O)CSC[C@@H](C(=O)N[C@@H](CCCNC(=N)N)C(N)=O)NC1=O)C(=O)N[C@@H](Cc1c[nH]c3ccccc13)C(=O)N[C@@H](CCC(N)=O)C(=O)N2 (single isomer, unassigned) [I3 (isomer 3), H-DC(1a)SC(2a)WQC(2a)WWLC(1a)R-[NH2], reference compound]		SIF (% remaining 4 h) ([1]; 4 h): 0%
CC(C)C[C@]1(C)NC(=O)[C@H](Cc2ccc3ccccc3c2)NC(=O)[C@H](Cc2ccc(OCCN)cc2)NC(=O)[C@@H]2CSCC(=O)CSC[C@H](NC(=O)[C@H](CO)NC(=O)c3cccc(c3)CNC(=O)CC[C@@H](C(=O)N(C)[C@@H](CCCNC(=N)N)C(N)=O)NC1=O)C(=O)N[C@@H](Cc1c[nH]c3ccccc13)C(=O)N[C@@H](CCC(N)=O)C(=O)N2 [Compound 43, [(3-Aminomethyl)benzoyl](1c)*SC(2a)WQC(2a)[Y(2-aminoethoxy)][2-Nal][2-Me-Leu]E(1c)[N-Me-Arg]-[NH2]] ([3Amb]SCWQC[AEF][2Nal][αMeL]E[NMeR]-NH2; linker 3-6 via CH2COCH2; lactam N-10)	33	
CC[C@H](C)[C@@H]1NC(=O)Cc2ccc(cc2)CNC(=O)CC[C@@H](C(=O)N[C@@H](CCN)C(=O)N[C@@](C)(Cc2cccnc2)C(N)=O)NC(=O)[C@](C)(C(C)C)NC(=O)[C@H](Cc2cn(C)c3ccccc23)NC(=O)[C@H](Cc2ccc(C)cc2)NC(=O)[C@@H]2CCNC(=O)CC[C@H](NC1=O)C(=O)N[C@@H](Cc1c[nH]c3ccccc13)C(=O)N[C@@H](CCC(N)=O)C(=O)N2 [Compound 175, [4-Aminomethyl-phenylacetyl](1c)*IE(2c)WQ[Dab](2c)[F(4-Me)][1-Me-Trp][2-Me-Val]E(1c)[Dab][2-Me-3-(3-Pyridyl)-Ala]-[NH2]] ([X1]IEWQ[Dab][Phe(4-Me)][Trp(1-Me)][αMeV]E[Dab][αMeAla(3-pyridyl)]-NH2; lactam 3-6, N-10)	93	
CC(C)C[C@]1(C)NC(=O)[C@H](Cc2ccc3ccccc3c2)NC(=O)[C@H](Cc2c[nH]c3ccccc23)NC(=O)[C@@H]2CSCC(=O)CSC[C@H](NC(=O)[C@H](CO)NC(=O)c3cccc(c3)CNC(=O)CC[C@@H](C(=O)N[C@@H](CCCNC(=N)N)C(N)=O)NC1=O)C(=O)N[C@@H](Cc1c[nH]c3ccccc13)C(=O)N[C@@H](CCC(N)=O)C(=O)N2 [Compound 40, [(3-Aminomethyl)benzoyl](1c)*SC(2a)WQC(2a)W[2-Nal][2-Me-Leu]E(1c)R-[NH2]] ([3Amb]SCWQCW[2Nal][αMeL]ER-NH2; linker 3-6 via CH2COCH2; lactam N-10)		remaining at 1 h, 10 μM ([1]; pig, simulated intestinal fluid (SIF) with porcine pancreatin, 1 h, read-out: SIF (% remaining 1 h)): 70%
CC[C@H](C)[C@@H]1NC(=O)Cc2ccc(cc2)CNC(=O)CC[C@@H](C(=O)N[C@@H](CCN)C(=O)N[C@@](C)(Cc2cccnc2)C(N)=O)NC(=O)[C@](C)(C(C)C)NC(=O)[C@H](Cc2ccc(C)c(C)c2)NC(=O)[C@@H](Cc2ccc(F)cc2)NC(=O)[C@@H]2CCNC(=O)CC[C@H](NC1=O)C(=O)N[C@@H](Cc1c[nH]c3ccccc13)C(=O)N[C@@H](CCC(N)=O)C(=O)N2 [Compound 170, [4-Aminomethyl-phenylacetyl](1c)*IE(2c)WQ[Dab](2c)[{d}F(4-F)][F(3,4-Me)][2-Me-Val]E(1c)[Dab][2-Me-3-(3-Pyridyl)-Ala]-[NH2]] ([X1]IEWQ[Dab][dPhe(4-F)][Phe(3,4-Me2)][αMeV]E[Dab][αMeAla(3-pyridyl)]-NH2; lactam 3-6, N-10)	62	
CC[C@H](C)[C@@H]1NC(=O)Cc2ccc(cc2)CNC(=O)CC[C@@H](C(=O)N[C@@H](CCN)C(=O)N[C@@](C)(Cc2cccnc2)C(N)=O)NC(=O)[C@](C)(C(C)C)NC(=O)[C@@H](Cc2c[nH]c3cc(F)ccc23)NC(=O)[C@H](Cc2ccc(C)cc2)NC(=O)[C@@H]2CCNC(=O)CC[C@H](NC1=O)C(=O)N[C@@H](Cc1c[nH]c3ccccc13)C(=O)N[C@@H](CCC(N)=O)C(=O)N2 [Compound 177, [4-Aminomethyl-phenylacetyl](1c)*IE(2c)WQ[Dab](2c)[F(4-Me)][{d}6-F-Trp][2-Me-Val]E(1c)[Dab][2-Me-3-(3-Pyridyl)-Ala]-[NH2]] ([X1]IEWQ[Dab][Phe(4-Me)][dTrp(6-F)][αMeV]E[Dab][αMeAla(3-pyridyl)]-NH2; lactam 3-6, N-10)	63	
CC(C)C[C@]1(C)NC(=O)[C@H](Cc2ccc3ccccc3c2)NC(=O)[C@H](Cc2ccc(OCCN)cc2)NC(=O)[C@@H]2CSCC(=O)CSC[C@H](NC(=O)[C@H](CO)NC(=O)Cc3ccc(cc3)CNC(=O)CC[C@@H](C(=O)N[C@H](CCNC(=O)CCOCCOCC[N+](C)(C)C)C(N)=O)NC1=O)C(=O)N[C@@H](Cc1c[nH]c3ccccc13)C(=O)N[C@@H](CCC(N)=O)C(=O)N2 [Compound 109, [4-Aminomethyl-phenylacetyl](1c)*SC(2a)WQC(2a)[Y(2-aminoethoxy)][2-Nal][2-Me-Leu]E(1c)[{d}2,4-Diaminobutanoyl([2-(trimethyl-2-aminoethoxy)ethoxy]propyl)]-[NH2]] ([X1]SCWQC[AEF][2Nal][αMeL]E[dDab](Me3N+(CH2)2O(CH2)2O(CH2)2CO)-NH2; linker 3-6 via CH2COCH2; lactam N-10)		Ki (human IL-23R): 0.46 nM
CC(C)C[C@]1(C)NC(=O)[C@H](Cc2ccc3ccccc3c2)NC(=O)[C@H](Cc2ccc(OCCN)cc2)NC(=O)[C@@H]2CSCC(=O)CSC[C@H](NC(=O)[C@H](CO)NC(=O)Cc3ccc(cc3)CNC(=O)CC[C@@H](C(=O)N[C@H](Cc3c[nH]cn3)C(N)=O)NC1=O)C(=O)N[C@@H](Cc1c[nH]c3ccccc13)C(=O)N[C@@H](CCC(N)=O)C(=O)N2 [Compound 117, [4-Aminomethyl-phenylacetyl](1c)*SC(2a)WQC(2a)[Y(2-aminoethoxy)][2-Nal][2-Me-Leu]E(1c)[{d}H]-[NH2]] ([X1]SCWQC[AEF][2Nal][αMeL]E[dH]-NH2; linker 3-6 via CH2COCH2; lactam N-10)		Ki (human IL-23R): 0.188 nM
